# Tests used:
# [1] = Inhibition of caspase-like activity of beta1 subunit of 20S proteasome in human erythrocytes using Z-LLE-MCA as substrate preincubated with enzyme for 10 mins followed by substrate addition and measured after 3 hrs by fluorescence spectrophotometeric analysis
# [2] = Inhibition of trypsin-like activity of beta2 subunit of 20S proteasome in human erythrocytes using Boc-LRR-MCA as substrate preincubated with enzyme for 10 mins followed by substrate addition and measured after 3 hrs by fluorescence spectrophotometric analysis
SMILES,IC50 [1] [µM],IC50 [2] [µM]
C=C1CC[C@H]2C(C)(C)[C@H](O)CC[C@]2(C)[C@H]1C[C@]12O[C@H]1C(=O)C(COC(=O)[C@H](O)[C@H](C)O)=CC2=O,5.2,27.9
C=C1CC[C@H]2C(C)(C)[C@H](O)CC[C@]2(C)[C@H]1C[C@]12O[C@H]1[C@H](O)C(COC(=O)[C@H](O)[C@H](C)O)=CC2=O,87.3,> 100
C=C1CC[C@H]2C(C)(C)[C@H](O)CC[C@]2(C)[C@H]1C[C@]12O[C@H]1C(=O)C(CO)=CC2=O,17.8,76.1

# Further lines, results first:
IC50 [1] [µM],IC50 [2] [µM],SMILES
> 100,> 100,C=C1CC[C@H]2C(C)(C)[C@H](O)CC[C@]2(C)[C@H]1C[C@]12O[C@H]1[C@H](O)C(CO)=CC2=O
30.1,> 100,C=C1CC[C@H]2C(C)(C)[C@H](O)CC[C@]2(C)[C@H]1C[C@]12O[C@H]1[C@H](O)C(COC(=O)C[C@H](C)O)=CC2=O
3.9,22.5,C=C1CC[C@H]2C(C)(C)[C@H](O)CC[C@]2(C)[C@H]1C[C@]12O[C@H]1C(=O)C(COC(=O)C[C@H](C)O)=CC2=O

# Reference: BindingDB's records for doi:10.1016/j.bmc.2019.115161 (Iwate University, 2019)
